Values after ≈ are worked out from the molar mass of the structure shown. Read-outs that look alike come from different tables or passages of the source. Where a SMILES comes first, the peptide text is derived from it. Bridges are numbered along the chain shown (N, C = ends). Where no end group is shown, it is not given here. [ ]: non-standard residue; d: D form. The star is where a group is joined. X1 = CC[C@H](C)CCCCC(=O)*; Dab = NCC[C@H](N)C(=O)O
How the values were obtained:
L. fermentum ATCC 14931 = experiment: Lactobacilli susceptibility, broth microdilution (ISO 10932/IDF 233); assay type: cell-based, Lactobacillus fermentum; conditions: Limosilactobacillus fermentum
Description: (§1) To assess the effect of antibacterial peptides on lactobacilli, Lactobacillus acidophilus ATCC 4356, Lactobacillus casei ATCC 393, Lactobacillus fermentum ATCC 14931, and Lactobacillus rhamnosus ATCC 7469 strains (from American Type Culture Collection) were used. Before performing the test, cultures were streaked on Lactobacilli MRS agar (MRS) and incubated for 24 h at 37 °C in an anaerobic chamber (BD Difco, Detroit, MI, USA). Antibacterial susceptibility testing was performed according to the ISO 10932/IDF 233 standard (ISO, 2010). […] Typically, a twofold serial dilution of stock solutions was performed in Lactobacilli MRS broth to obtain solutions in the 0.2–100 µM concentration range. Bacterial inocula were prepared by suspending colonies, from 24 h incubated Lactobacilli MRS agar plates, into 2 mL of 0.85% NaCl solution. […] MIC values were estimated after incubating the plates under anaerobic conditions at 37 °C for 48 h.

L. casei ATCC 393 = experiment: as above; assay type: cell-based, Lactobacillus casei; conditions: Lacticaseibacillus casei
Description: as §1

L. rhamnosus ATCC 7469 = experiment: as above; assay type: cell-based, Lactobacillus rhamnosus; conditions: Lacticaseibacillus rhamnosus
Description: as §1

L. acidophilus ATCC 4356 = experiment: as above; assay type: cell-based; conditions: Lactobacillus acidophilus
Description: as §1

[1] = test system: Acinetobacter baumanii ATCC 17878; assay type: cell-based; conditions: control antibiotic; broth microdilution, Nutrient Broth 0.5×, overnight 37 °C
Description: (§2) MIC (Minimum Inhibitory Concentration) analyses were performed on Gram-positive and Gram-negative bacteria by a broth microdilution method previously described, with minor modifications. In details, assays were carried out in Nutrient Broth 0.5× (Difco, Detroit, MI, USA) using sterile 96-well polypropylene microtiter plates (cat. 3879, Costar Corp., Cambridge, MA, USA). Bacterial strains were grown in Luria–Bertani (LB) medium overnight at 37 °C and then diluted in nutrient broth at a final concentration of ~ 5 × 10^5 CFU/mL per well. […] Peptide concentrations were determined by spectrophotometric analysis using the extinction coefficients calculated by the ProtParam tool (http://web.expasy.org/protparam/). Twofold serial dilutions of peptides were carried out in the test wells (0.2–100 μM concentration range). Plates were incubated overnight at 37 °C. MIC value was taken as the lowest concentration at which growth was inhibited. Three independent experiments were performed for each MIC value. The peptide antibiotic polymyxin B and vancomycin (Sigma, St. Louis, MO) were tested as control. MIC values were measured on: Pseudomonas aeruginosa PAO1, Acinetobacter baumanii ATCC 17878, Escherichia coli ATCC 25922, Salmonella typhimurium ATCC 14028, Salmonella enteritidis 706 RIVM (kindly provided by Prof. E. Veldhuizen, Utrecht University, Holland), Staphylococcus aureus ATCC 6538P, and Enterococcus faecalis ATCC 29212.

[2] = test system: Escherichia coli ATCC 25922; assay type: cell-based
Description: as §2

[3] = test system: Pseudomonas aeruginosa PAO1; assay type: cell-based; conditions: control antibiotic; broth microdilution, Nutrient Broth 0.5×, overnight 37 °C
Description: as §2

[4] = test system: Salmonella enteritidis 706 RIVM; assay type: cell-based; conditions: control antibiotic; broth microdilution, Nutrient Broth 0.5×, overnight 37 °C
Description: as §2

[5] = test system: Salmonella typhimurium ATCC 14028; assay type: cell-based
Description: as §2

[6] = test system: Enterococcus faecalis ATCC 29212; experiment: microbe, parasite or virus in culture; assay type: cell-based
Description: as §2

[7] = test system: selected Gram-positive and Gram-negative strains; experiment: Antimicrobial activity of mucosal peptides on selected strains; assay type: cell-based; conditions: summary of Table 3
Description: as §2, with “The peptide antibiotic polymyxin B and vancomycin (Sigma, St. Louis, MO) were tested as control.” left out

[8] = test system: Escherichia coli ATCC 25922; assay type: cell-based; remark: listed apart in the source
Description: The Minimum Bactericidal Concentration (MBC) was determined from the broth dilution of MIC tests by subculturing cell mixtures on agar plates. The MBC was defined as the lowest concentration of antibacterial agent that kills ≥ 99.9% of bacterial cells. According to a widely accepted criterion, peptides were considered bactericidal if their MBC was no more than four times the MIC.

[9] = control antibiotic, broth microdilution, Nutrient Broth 0.5×, overnight 37 °C

Question: Which results are given for CC[C@H]1OC(=O)[C@H](C)[C@@H](O[C@H]2C[C@@](C)(OC)[C@@H](O)[C@H](C)O2)[C@H](C)[C@@H](O[C@@H]2O[C@H](C)C[C@H](N(C)C)[C@H]2O)[C@](C)(O)C[C@@H](C)C(=O)[C@H](C)[C@@H](O)[C@]1(C)O [Erythromycin]?
Answer: MIC (L. fermentum ATCC 14931; ATCC14931, Lactobacilli MRS broth, 3–8 × 10^5 CFU/mL, anaerobic, 37 °C, 48 h, 0.2–100 µM range, read-out: MIC): 1.4 µM (≈ 1.03 µg/mL); MIC (L. casei ATCC 393; ATCC393, Lactobacilli MRS broth, 3–8 × 10^5 CFU/mL, anaerobic, 37 °C, 48 h, 0.2–100 µM range, read-out: MIC): 2.8 µM (≈ 2.06 µg/mL); MIC (L. rhamnosus ATCC 7469; ATCC7469, Lactobacilli MRS broth, 3–8 × 10^5 CFU/mL, anaerobic, 37 °C, 48 h, 0.2–100 µM range, read-out: MIC): 0.7 µM (≈ 0.514 µg/mL); MIC (L. acidophilus ATCC 4356; ATCC4356, Lactobacilli MRS broth, 3–8 × 10^5 CFU/mL, anaerobic, 37 °C, 48 h, 0.2–100 µM range, read-out: MIC): 0.7 µM (≈ 0.514 µg/mL)

Question: What does the source list for CC[C@H](C)CCCCC(=O)N[C@@H](CCN)C(=O)N[C@H](C(=O)N[C@@H](CCN)C(=O)N[C@H]1CCNC(=O)[C@H]([C@@H](C)O)NC(=O)[C@H](CCN)NC(=O)[C@H](CCN)NC(=O)[C@H](CC(C)C)NC(=O)[C@@H](Cc2ccccc2)NC(=O)[C@H](CCN)NC1=O)[C@@H](C)O [Polymyxin B, polymyxin B] (X1-[Dab]T[Dab][Dab][Dab][dF]L[Dab][Dab]T; lactam 4-C (inferred); N-terminus assumed)?
Answer: MIC [1]: 0.5 µg/mL (≈ 0.415 µM); MIC [2, 9]: 0.5 µg/mL; MIC [3]: 0.25 µg/mL (≈ 0.208 µM); MIC [4]: 0.5 µg/mL (≈ 0.415 µM); MIC [5, 9]: 0.12 µg/mL

Question: For CN[C@H](CC(C)C)C(=O)N[C@H]1C(=O)N[C@@H](CC(N)=O)C(=O)N[C@H]2C(=O)N[C@H]3C(=O)N[C@H](C(=O)N[C@H](C(=O)O)c4cc(O)cc(O)c4-c4cc3ccc4O)[C@H](O)c3ccc(c(Cl)c3)Oc3cc2cc(c3O[C@@H]2O[C@H](CO)[C@@H](O)[C@H](O)[C@H]2O[C@H]2C[C@](C)(N)[C@H](O)[C@H](C)O2)Oc2ccc(cc2Cl)[C@H]1O [Vancomycin, vancomycin], which MIC ([6]; Enterococcus faecalis, ATCC29212) is on record?
Answer: 2 µg/mL

Question: What about the MIC (L. fermentum ATCC 14931; ATCC14931, 48 h) of the same compound?
Answer: > 100 µM

Question: What about the MIC (L. casei ATCC 393; ATCC393, 48 h) of the same compound?
Answer: > 100 µM

Question: And the MIC (L. rhamnosus ATCC 7469; ATCC7469, 48 h)?
Answer: > 100 µM

Question: And the MIC (L. acidophilus ATCC 4356; ATCC4356, 48 h)?
Answer: > 100 µM

Question: How did the MIC ([5]; ATCC 14028) turn out when EAANLFGKILEEKKLSRLPPSHL [EAA] was run?
Answer: > 200 µM

Question: And the MIC ([6]; ATCC 29212)?
Answer: > 200 µM

Question: And the “antibacterial activity (in words)” value [7]?
Answer: did not show any antibacterial activity

Question: How did the MIC ([2]; ATCC 25922) turn out when LKNARIVGELTGFRPVRPQVRLE [LKN] was run?
Answer: 50 µM

Question: What about the MIC ([5]; ATCC 14028) of the same compound?
Answer: > 200 µM

Question: What about the MIC ([6]; ATCC 29212) of the same compound?
Answer: > 200 µM

Question: What about the MBC [8] of the same compound?
Answer: 50 µM

Reference: paper PMC8038955, “Antimicrobial D-amino acid oxidase-derived peptides specify gut microbiota” (Cellular and Molecular Life Sciences: CMLS, 2021)
